Measured values reported in US20070015771A1, “Lonidamine analogs” (Threshold pharmaceuticals, Inc., priority 2004, published 2007).
Read-outs that look alike come from different tables or passages of the source.

What was measured:
PNt2 cells = test: Antiproliferation assay 3 days, PNt2 cells; assay type: cell-based; conditions: 3 day treatment; read-out: PNT2c cell line IC50
Procedure: (§1) To determine the effect of lonidamine analogs thereof on cell proliferation, the antiproliferative activity of these compounds was tested in a multi-well Alamar Blue based assay (at 3 days). Cell growth in the presence and absence of the test compound was compared, as measured by a fluoresence plate reader at excitation 550 nm and emission 590 nm (see Biosource International Inc., Tech Application Notes, Use of Alamar Blue in the measurement of Cell Viability and Toxity, Determining IC50). The following cell lines were tested: PWR-1E cells ((ATCC CRL-11611), 3500 cells/well/200 μl in Keratinocyte SFM medium (Gibco Products, Invitrogen Corporation, Carlsbad, Calif.)); DU-145 cells ((ATCC HTB-81), 4000 cells/well/200 μl in MEM Eagles medium (ATCC, Manassas, Va.)); PC3 cells ((ATCC CRL-1435), 4000 cells/200 μl in Modified HAM's F12 medium (ATCC, Manassas, Va.)); PNt2 cells ((Sigma-Aldrich, 95012613-1 VL), 4000 cells/well/200 μl in RPMI medium (Gibco Products, Invitrogen Corporation, Carlsbad, Calif.), BPH-1 ((DSMZ ACC-143), 4000 cells/well/200 μl in RPMI medium (Gibco Products, Invitrogen Corporation, Carlsbad, Calif), and NCI-H460 cells ((ATCC HTB-177), 4000 cells/well/200 μl in RPMI medium (Gibco Products, Invitrogen Corporation, Carlsbad, Calif.)). The cells were seeded in a 96 well plate in a medium specified above. After 24 hours, these plates were divided into 2 groups—Control group and 3 day treatment group. A test compound was added to each plate in the treatment groups at concentrations of […] as tabulated in Table 1 (in 2 μl 1 of 100% DMSO, final DMSO concentration 1% in all wells). For NCI-H460 cells, test compounds were added to each plate in the treatment groups at concentrations of 600, 300, 100, 30, 10, 3, and 1 μM (in 2 μl of 100% DMSO, final DMSO concentration 1% in all wells). The cells in the 3 day treatment group were incubated for 3 days, followed by staining with AlamarBlue. In the Control group, AlamarBlue was added to the plate at (i) day 0 and (ii) day 3 and measured to establish the control reading. […] For the NCI-H460 cells, the capacity of the cells to proliferate was measured 5 hours after addition of AlamarBlue using the same fluorescence plate reader as stated above.

PC3 cells = test: Antiproliferation assay 3 days, PC3 cells; assay type: cell-based, human; conditions: 3 day treatment; read-out: PC-3 cell line IC50
Procedure: as §1

BPH-1 = test: Antiproliferation assay 3 days, BPH-1 cells; assay type: cell-based; conditions: 3 day treatment; read-out: BPH-1 cell line IC50
Procedure: as §1

PWR-1E cells [1] = test: Antiproliferation assay 3 days, PWR-1E cells (Example 49); assay type: cell-based; conditions: read-out: PWR1e cell line IC50
Procedure: as §1

DU-145 cells = test: Antiproliferation assay 3 days, DU-145 cells; assay type: cell-based; conditions: 3 day treatment; read-out: Du-145 cell line IC50
Procedure: as §1

H460 cells = test: Antiproliferation assay (Alamar Blue), H460 cells; assay type: cell-based
Procedure: (§2) To determine the effect of lonidamine and analogs thereof on cell proliferation, the antiproliferative activity of these compounds was tested in a multi-well Alamar Blue based assay (at 2 h and 3 days). Cell growth in the presence and absence of the test compound (compounds 1-22) was compared, as measured by a fluorescence plate reader at excitation 550 nm and emission 590 nm (see Biosource International Inc., Tech Application Notes, Use of Alamar Blue in the measurement of Cell Viability and Toxicity, Determining IC50). H460 cells (ATCC HTB-177 ([…]), 4,000 cells/well/200 μl) and LNCap cells (ATCC CRL-1740, 6,000 cells/well/200 μl) were seeded in a 96 well plate in RPMI medium (Invitrogen Corporation, Carlsbad, Calif.). After 24 hours, these plates were divided into 3 groups—Control group, 2 h treatment group and 3 day treatment group. In the 2 h treatment group, after 2 h the cells were rinsed to remove the test compound and incubated for 3 days, followed by staining with AlamarBlue. The cells in the 3 day treatment group were incubated for 3 days, followed by staining with AlamarBlue. In the Control group, AlamarBlue was added to the plate at (i) day 0 and (ii) day 3 and measured to establish the control reading.

PWR-1E cells [2] = test: Antiproliferation assay, PWR-1E cells (Example 48); assay type: cell-based; conditions: read-out: IC50 PWR-1E cell
Procedure: as §2
The effect of lonidamine and analogs thereof on cell proliferation in PWR-1E cells (ATCC CRL-11611) was determined in an antiproliferative assay using PWR-1E cells (5000 cells/well) in Keratinocyte SFM medium (Gibco Products, Invitrogen Corporation, Carlsbad, Calif.) according to the procedure detailed in Example 47 above.

LNCaP cells = test: Antiproliferation assay (Alamar Blue), LNCaP cells; assay type: cell-based, human; conditions: 3 day treatment, read-out: GI50 LNCaP cell 3days
Procedure: as §2

SH rat prostate = test: 5 day systemic administration in male SH rats, prostate; assay type: in vivo; design: inhibition in vivo: dose or concentration left out as unconfirmed; conditions: for Prostate shrinkage: male SH rats, oral daily for 5 days at 50 mg/ml, day 6; for inhibition in vivo: Rattus norvegicus, po, 144 h, read-out: Prostate shrinkage
Procedure: (§3) The effect of test compounds (lonidamine and lonidamine analogs) on the SH rat prostate was determined as follows. The test compound was orally administered daily for 5 days to male, SH rat, (n=6, 14 weeks old, Charles River Labs) at 50 mg/ml concentrations (as a 0.5% carboxymethylcellulose formulation). The control rats received an equal amount of the vehicle ([…]). Blood samples were collected 2 hours after administration on day 6, for pharmokinetic analysis of the compounds. On day 6 the rats were sacrificed and the entire prostate and the individual lobes (e.g., the ventral, dorso-lateral, and anterior lobes) were removed and weighed to measure absolute weights. Relative weights of prostate and individual lobes were calculated by dividing the absolute weight by the total body weight of the […]. Relative weights of the entire prostate, the dorsal prostate, and the ventral prostate were calculated by dividing the absolute weight by the total weight of the mouse. The histomorphology of the prostate was also analyzed and compared to that of the control or untreated prostate.

testes = test: 5 day systemic administration in male SH rats, testis; assay type: in vivo, rat; design: inhibition in vivo: dose or concentration left out as unconfirmed; conditions: for Testis shrinkage: male SH rats, oral daily for 5 days at 50 mg/ml, day 6; for inhibition in vivo: Rattus norvegicus, po, 144 h, read-out: Testis shrinkage
[3] = 5 day systemic administration in male SH rats, pharmacokinetic blood samples; assay type: in vivo, rat; conditions: oral daily for 5 days at 50 mg/ml, blood 2 hours after administration; for concentration at 2 h: rat, in vivo, read-out: PK
Procedure: as §3

advanced breast cancer = conditions: 28 evaluable patients, daily divided oral dose of 600 mg; cited from earlier work
[4] = system: cell lines derived from human prostate cells; conditions: LNCaP vs PC3 cells; cited from earlier work
[5] = system: primary cultures of human prostate epithelial cells; conditions: epithelial vs stromal cells; cited from earlier work
HIF-1-alpha = conditions: cells cultured under hypoxia, cited from earlier work
NCI-H460 cells = test: Antiproliferation assay 3 days, NCI-H460 cells; assay type: cell-based; conditions: Homo sapiens, NCI-H460, 72 h, read-out: NCI-H460 cell line IC50
Procedure: as §1

mouse testis = test: Mouse study, 5 day effect of Compound 3 on testis; assay type: in vivo; conditions: mice
Procedure: (§4) The 10 day effect of Compound 3 on the mouse prostate and its 5 day effect on mouse testis were determined as in Example 51 by using 10 mice per experiment group and the results are illustrated graphically in FIGS. 14-18.

mouse prostate = test: Mouse study, 10 day effect of Compound 3 on prostate; assay type: in vivo; conditions: mice
Procedure: as §4

[6] = 3 day treatment, read-out: GI50 H460 cell 3 days
[7] = read-out: GI50 H460 cell 2 hr, 2 h treatment then 3 days incubation

SMILES	IC50 (PWR-1E cells [1]; 3 day treatment) [µM]	GI50 (H460 cells; [6]) [µM]	GI50 (H460 cells; [7]) [µM]	IC50 (PWR-1E cells [2]) [µM]	GI50 (LNCaP cells) [µM]	Prostate shrinkage (SH rat prostate) [%]	Testis shrinkage (testes) [%]	PK [3] [µg/mL]	also measured
CN(O)C(=O)c1nn(Cc2ccc(Cl)cc2Cl)c2ccccc12 [Compound 56]	2.6	–	–	–	–	–	–	–	IC50 (PNt2 cells): 1.25 µM; IC50 (PC3 cells): 4 µM; IC50 (BPH-1): 1.65 µM; IC50 (DU-145 cells): 3.25 µM
CS(=O)(=O)NC(=O)c1nn(Cc2ccc(Cl)cc2Cl)c2ccccc12 [Compound 4]	–	158	281	18	178	–	–	–	–
O=C(O)c1nn(Cc2ccc(Cl)cc2Cl)c2ccccc12 [Compound 12]	31	> 400	251	20	125	17	42	153	IC50 (PNt2 cells): 198 µM; IC50 (PC3 cells): 195 µM; IC50 (BPH-1): 230 µM; IC50 (DU-145 cells): 214 µM
O=C(NO)c1nn(Cc2ccccc2)c2ccccc12 [Compound 2]	18	31.6	400	18	–	–	–	–	–
O=C(NO)c1nn(Cc2ccc(Cl)cc2Cl)c2ccc(Cl)cc12 [Compound 54]	1.3	–	–	–	–	6.8	0.3	120	–
O=C(O)c1nn(Cc2ccc(Cl)cc2Cl)c2ccccc12 [lonidamine, 1-(2,4-dichlorobenzyl)-1H-indazole-3-carboxylic acid]	–	–	–	–	–	–	–	–	minor response (advanced breast cancer): 11%; partial response (advanced breast cancer): 11%; apoptosis in cell lines derived from human prostate cells [4]: induces apoptosis; apoptosis in primary cultures of human prostate epithelial cells [5]: induces apoptosis; reduction of HIF-1-alpha expression/accumulation (nuclear fraction) (HIF-1-alpha; 200 micromolar): about 2 fold; reduction of HIF-1-alpha expression/accumulation (nuclear fraction) (HIF-1-alpha; higher lonidamine concentrations): more than 5 fold
NC(=O)c1nn(Cc2ccc(Cl)cc2Cl)c2ccccc12 [Compound 5]	5.5	20	40	4	20	−8.1	−3.5	12	–
OCc1nn(Cc2ccc(Cl)cc2Cl)c2ccccc12 [Compound 58]	–	–	–	–	–	–	–	–	inhibition in vivo (SH rat prostate): 12.9%; inhibition in vivo (testes): 26.5%; concentration at 2 h [3]: 0 µg/mL
O=C(O)c1nn(Cc2ccc(Cl)cc2)c2ccc(Cl)cc12 [Compound 64]	–	–	–	–	–	–	–	–	inhibition in vivo (SH rat prostate): -0.4%; IC50 (NCI-H460 cells): 159 µM; inhibition in vivo (testes): -1.3%; concentration at 2 h [3]: 614 µg/mL; IC50 (PWR-1E cells [1]; Homo sapiens, PWR-1E, 72 h): > 30 µM
O=C(O)c1nn(Cc2c(Cl)cccc2Cl)c2ccccc12 [Compound 3]	69	250	398	25	180	−2.9	0.4	243	IC50 (PNt2 cells): 257 µM; IC50 (PC3 cells): 191 µM; IC50 (BPH-1): 215 µM; absolute left testis weight (FIG. 18) (mouse testis): reduction; absolute right testis weight (FIG. 17) (mouse testis): reduction; IC50 (DU-145 cells): 224 µM; absolute anterior prostate weight (FIG. 16) (mouse prostate): reduction; absolute dorsal prostate weight (FIG. 15) (mouse prostate): reduction; absolute ventral prostate weight (FIG. 14) (mouse prostate): reduction
N#Cc1ccc(Cn2nc(C(=O)O)c3ccccc32)c(Cl)c1 [Compound 97]	–	–	–	–	–	–	–	–	inhibition in vivo (SH rat prostate): 5.5%; IC50 (NCI-H460 cells): > 300 µM; inhibition in vivo (testes): 0.9%; concentration at 2 h [3]: 0 µg/mL; IC50 (PWR-1E cells [1]; Homo sapiens, PWR-1E, 72 h): 135 µM
